Measured values reported in patent US10329476B2, “Non-regulated synthetic acid compositions for use as alternatives to conventional acids in the oil and gas industry” (FLUID ENERGY GROUP LTD., priority 2015, dated 2019).

Tested on: human skin
Experiment: Dermal exposure test
Assay type: in vivo
From the text: The objective of this study was to evaluate the dermal irritancy and corrosiveness of the composition of Example 2, following a single application to human skin. To assess the safety upon spillage on human skin, a few drops of the synthetic acid according to a preferred embodiment of the present invention and a control composition (MSA—70%) were applied to the skin on the back of the hand of a test individual. The hands were not covered and remained exposed to the compositions for a period of up to one hour. The exposed skin was subsequently washed with soap and visual assessment of the exposed area was done 24 hours after the start of the exposure.

Dermal exposure, skin observation (24 hrs from exposure, after washing with soap): scab formation
Dermal exposure, skin observation (back of hand, 0 hrs from exposure): immediate burning
Dermal exposure, skin observation (back of hand, ½ hrs from exposure): small blisters
SMILES: CS(=O)(=O)O [MSA (70%), Methanesulfonic acid]
Dermal exposure, skin observation (back of hand, 1 hrs from exposure): red skin irritation with large blisters
